Measurements taken from patent US6274568A, “Compounds for altering cell surface sialic acids and methods of use therefor” (priority 1999, dated 2001).

Legend:
MAG-Fc chimera = assay: MAG-Fc binding to precursor-treated NG108-15 cells by flow cytometry; format: cell-based
Protocol: Flow cytometry was used to test binding of a soluble MAG-Fc chimera to precursor-treated and control NG108-15 cells. A chimeric protein consisting of the entire extracellular domain of MAG fused via a three amino acid bridge (TGK) to the human Fc domain was produced using the "pIgPlus" vector (Novagen, Madison, Wis.). A PCR fragment coding for the extracellular domain of MAG was prepared using MAG in pCDM8 as template (Yang et al., 1996a), the T7 5' primer […] (SEQ ID NO:1) and […] (SEQ ID NO:2) as the 3' primer. The fragment was cut with BamHI and HindIII and directionally cloned into the pIgPlus vector. The resulting construct was sequenced to confirm its identity, transfected into COS cells, and the resulting MAG-Fc chimera was purified from the culture medium using Protein G affinity chromatography.
For MAG binding studies, NG108-15 cells were cultured in the presence of sialic acid precursors for the indicated times, then were released from culture dishes using hypertonic Ca^2+ /Mg^2+ -free phosphate-buffered saline (Yang et al., Proc. Natl. Acad. Sci. USA., 93:814, 1996) and resuspended (at […]) in 25 mM Hepes-buffered Hanks balanced salt solution (Bashor, Methods Enzymol., 58:119, 1979) containing 5 mg/ml bovine serum albumin. MAG-Fc (6 μg) was added to 100 μl of the same buffer containing 6 μg fluorescein isothiocyanate-labeled goat anti-human Fc (Jackson Immunoresearch, West Grove, Pa.) and incubated on ice for 1 h 45 min with frequent mixing. Cell suspension (100 μl containing 50,000 cells) was added to the premixed antibody solution and the mixture incubated on ice for 45 min. The cells were then centrifuged for 4 sec at 16,000×g and washed three times by resuspension in 200 μl of buffer with bovine serum albumin and centrifugation. The resulting cell pellet was resuspended in 100 μl buffer with bovine serum albumin and flow cytometry was performed on an Epics Profile II cytometer (Coulter Corp, Hialeah, Fla.).
NG108-15 cells, a mouse neuroblastoma/rat glioma hybrid, display many qualities of cholinergic neurons, including neurite outgrowth, synthesis, storage and release of acetylcholine, and functional synapse formation with muscle cells in vitro. Neurite outgrowth from NG108-15 cells is inhibited by MAG (McKerracher et al., Neuron, 13:805, 1994), an interaction which is reversed by pretreatment of the cells with neuraminidase (Schnaar et al., Ann. N.Y. Acad. Sci., 845:92, 1998). […] Binding was quantified by flow cytometry. […]

NG108-15 cells = assay: O-acetylation state of NeuGc in ManNGcPA-treated NG108-15 cells, thin layer chromatography; format: cell-based, mouse neuroblastoma/rat glioma hybrid; settings: 1 mM, 48 h
Protocol: O-Acetylated sialic acids from bovine submaxillary mucin served as standards. […] A portion of the organic/aqueous soluble pool (predominantly free sialic acids) was subjected to silicic acid thin layer chromatography using propanol-water (1:1) as developing solvent and resorcinol reagent for detection. Sialic acids released from bovine submaxillary mucin, which contain primarily O-acetylated forms of NeuAc (as well as NeuAc, NeuGc, and O-acetylated forms of NeuGc) were prepared and used as positive controls. Lane 1, bovine submaxillary mucin sialic acids; Lane 2, mucin sialic acids pretreated with concentrated ammonium hydroxide for 2 h at ambient temperature to selectively deplete O-acetyl groups; Lane 3, NeuAc standard; Lane 4, NeuGc standard; Lane 5, extract from ManNGcPA-treated NG108-15 cells. O-Acetylated forms of NeuGc, which are reported to migrate 60-100% farther than the parent NeuGc in this system, appear to be absent from the cell extract.

de-O-acetylation prior to or coordinate with metabolism to sialic acid (NG108-15 cells): apparently complete de-O-acetylation
SMILES: CC(=O)OCC(=O)N[C@@H]1C(OC(C)=O)O[C@H](COC(C)=O)[C@@H](OC(C)=O)[C@@H]1OC(C)=O (stereo partly shown) [ManNGcPA, N-glycolylmannosamine pentaacetate]
inhibition of MAG-Fc binding (MAG-Fc chimera; 0.25 mM or 1 mM, 96 h): ≈ 70%
inhibition of specific binding of MAG-Fc (MAG-Fc chimera; 1 mM, 144 h, compared to control cells): 95%
O-acetylated NeuGc in the precursor pool (NG108-15 cells): no significant proportion of O-acetylated NeuGc
